In US20260063641A1, “COMPOSITIONS AND METHODS FOR LABELING AND DETECTING BINDING PARTNERS” (UNIVERSITY OF UTAH RESEARCH FOUNDATION, priority 2022, published 2026):
Entries after “also recorded” stand apart in the source; their conditions may differ. Blank lines part the entries; values can stand above or below the molecule they belong to.

Experiments:
Format in all cases: cell-based
[1] = molecular target: T1, NLuc-FKBP12F36V (Homo sapiens, UniProt P62942, F37V); assay: FKBP12F36V cellular target engagement assay (competition with dTAG-13, NLuc/FLuc signal); conditions: for competitive displacement of dTAG-13 (FKBP12F36V cellular target engagement): mean±S.D. of n=3 technical replicates, FIG. 4D-F
T1 construct: expressed in transfected cells
Text: This method, named the biotin targeting chimera (BioTAC) system, uses bifunctional molecules composed of a compound-of-interest linked to selective FKBP12F36V recruiter orthoAP1867, to recruit a ligandable proximity labeling enzyme (mTurbo-FKBP12F36V) to compound-bound complexes enabling their biotinylation and subsequent affinity purification (FIG. TA-B). To benchmark the BioTAC system for accurate detection of the direct targets of ligands the well-characterized BET protein inhibitor (+)-JQ1, which potently binds BRD2, BRD3 and BRD4 (as well as the testes-specific BET protein BRDT), was selected as a test case. A series of bifunctional molecules consisting of (+)-JQ1 conjugated to […] were synthesized via a variable linker (FIG. 1B, FIG. 4A-C). (+)-JQ1-bifunctional molecule cell permeability was measured using an FKBP12F36V cellular target engagement assay adapted from Nabet et. al Nat Commun 11, 4687 (2020). Briefly, FKBP12F36V binding molecules compete with an FKBP12F36V targeting PROTAC (dTAG-13), for NLuc-FKBP12F36V occupancy, rescuing degradation and resulting in an increase in NLuc/FLuc (control) signal relative to DMSO-treated cells. All synthesized compounds were comparably cell permeable (FIG. 4D-E).

[2] = molecular target: T2, MEK1 (Homo sapiens, UniProt Q02750); assay: BioTAC proximity labeling, streptavidin enrichment and immunoblot for MEK1; conditions: HEK293 with miniTurbo-FKBP12F36V, 100 μM biotin, dose and time point optimization
T2 construct: Immunoblot analysis of MEK1/2 enrichment following treatment of HEK293 cells; host or cells: HEK293 transiently transfected with the BioTAC plasmid
Experimental: (§1) Bifunctional trametinib analogue JWJ-01-280/Cpd2 was synthesized, with a linker attachment informed by a reported trametinib-derived BRET probe named Tram-bo (FIG. 3B). […] The ability of the BioTAC system to detect both known interactors of trametinib was evaluated by Western blot, as described above.
(§2) 0.6 million HEK293 cells were plated into wells containing 1 mL of complete media (DMEM, 10% FBS, 1% pen/strep) and incubated overnight. Cells were transiently transfected with 100 μL of OptiMEM media containing 1 μg of BioTAC plasmid and 3 μL of TransIT-2020 transfection reagent (Mirus, MIR5400) for 24 hr. Following a media change, cells were pre-treated with parental molecules or DMSO for 10 min, then treated with bifunctional compound for 10 min, and finally labeled in 100 μM biotin for the indicated time. Cells were washed twice with DPBS then harvested into 1.5 mL tubes. […] Protein concentration was determined by BCA assay (Thermo, 23225), then 100 ug protein was rotated overnight at 4° C. with 8 μL of streptavidin magnetic beads (Thermo, 88817) that had been prewashed twice in RIPA lysis buffer. […]

[3] = molecular target: T3, MEK1:trametinib:KSR1 complex (Homo sapiens, UniProt Q02750); assay: BioTAC detection of molecular glue complex by immunoblot of MEK1 and KSR1; conditions: 4 hr treatment with 1 μM, 100 μM biotin
T3 construct: Immunoblot analysis of MEK1 and KSR1 following treatment of HEK293 cells; host or cells: HEK293 transiently transfected with the BioTAC plasmid
Experimental: as §1, §2

[4] = molecular target: T4, BRD4 (Homo sapiens, UniProt O60885); assay: BioTAC proximity labeling, streptavidin pulldown and western blot for BRD4; conditions: variable concentrations of free (+)-JQ1 against 1 μM bifunctional (+)-JQ1 recruiters, all timepoints
T4 construct: host or cells: HEK293 transiently transfected with the BioTAC plasmid
Experimental: Next bifunctional molecule guided-proximity labeling experiments were performed using validated reagents. HEK293 cells transiently transfected with mTurbo-FKBP12F36V were treated with 100 μM biotin, 1 μM bifunctional (+)-JQ1 recruiters, and variable concentrations of free (+)-JQ1 to off-compete the bifunctional molecule and rescue biotinylation. Biotinylated proteins were isolated from cell lysates via streptavidin bead pulldown and analyzed by western blot for BRD4, a primary target of (+)-JQ1.
as §2

T1 sequence (P62942 2-108 F37V limits assumed): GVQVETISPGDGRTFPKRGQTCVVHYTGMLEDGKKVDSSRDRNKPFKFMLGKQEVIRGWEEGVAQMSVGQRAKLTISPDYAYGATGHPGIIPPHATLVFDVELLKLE
T3 sequence (Q02750 whole entry, one chain of several): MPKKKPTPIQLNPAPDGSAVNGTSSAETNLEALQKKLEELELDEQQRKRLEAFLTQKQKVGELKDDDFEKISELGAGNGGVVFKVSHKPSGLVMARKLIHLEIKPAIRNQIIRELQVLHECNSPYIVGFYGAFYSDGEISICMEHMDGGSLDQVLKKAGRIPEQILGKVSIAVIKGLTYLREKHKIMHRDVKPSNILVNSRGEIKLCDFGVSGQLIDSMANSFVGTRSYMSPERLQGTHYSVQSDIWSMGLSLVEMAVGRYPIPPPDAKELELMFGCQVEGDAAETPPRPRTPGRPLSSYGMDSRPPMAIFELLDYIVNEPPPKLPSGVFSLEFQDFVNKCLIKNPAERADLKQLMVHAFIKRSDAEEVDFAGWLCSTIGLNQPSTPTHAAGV
T2 sequence (Q02750 whole entry): as the sequence (Q02750 whole entry, one chain of several) above
T2 sequence (as listed by the source partner): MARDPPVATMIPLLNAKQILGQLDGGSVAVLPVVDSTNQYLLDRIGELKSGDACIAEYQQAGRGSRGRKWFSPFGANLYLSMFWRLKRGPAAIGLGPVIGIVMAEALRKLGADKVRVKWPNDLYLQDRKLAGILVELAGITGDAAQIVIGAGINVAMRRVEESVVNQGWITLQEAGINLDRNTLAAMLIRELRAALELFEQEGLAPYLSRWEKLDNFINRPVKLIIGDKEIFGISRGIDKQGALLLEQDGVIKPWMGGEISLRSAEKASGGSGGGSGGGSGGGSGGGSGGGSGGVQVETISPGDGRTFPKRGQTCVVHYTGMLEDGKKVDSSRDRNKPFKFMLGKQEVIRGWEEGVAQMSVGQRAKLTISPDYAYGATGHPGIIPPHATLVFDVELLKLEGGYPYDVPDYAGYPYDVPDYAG

MEK1 labelling (immunoblot) [2]: efficient MEK1 labelling
Molecule: CC[C@H](C(=O)N1CCCC[C@H]1C(=O)O[C@H](CCc1ccc(OC)c(OC)c1)c1ccccc1OCC(=O)NCCOCCOCCC(=O)Nc1cccc(-n2c(=O)n(C3CC3)c(=O)c3c(Nc4ccc(I)cc4F)n(C)c(=O)c(C)c32)c1)c1cc(OC)c(OC)c(OC)c1 [Cpd2, (R)-1-(2-(2-((2-(2-(3-((3-(3-Cyclopropyl-5-((2-fluoro-4-iodophenyl)amino)-6,8-dimethyl-2,4,7-trioxo-3,4,6,7-tetrahydropyrido[4,3-d]pyrimidin-1(2H)-yl)phenyl)amino)-3-oxopropoxy)ethoxy)ethyl)amino)-2-oxoethoxy)phenyl)-3-(3,4-dimethoxyphenyl)propyl (S)-1-((S)-2-(3,4,5-trimethoxyphenyl)butanoyl)piperidine-2-carboxylate]
cell permeability measured by FKBP12F36V cellular target engagement assay ([1]; rescue of NLuc-FKBP12F36V degradation by dTAG-13, relative to DMSO): less cell permeable than the (+)-JQ1 derivatives
detection/enrichment of MEK1:trametinib:KSR1 complex (immunoblot of MEK1 and KSR1) [3]: detected; also recorded: successful enrichment and competition with trametinib

competitive displacement of dTAG-13 (FKBP12F36V cellular target engagement) [1]: competitive displacement of dTAG-13
Molecule: CC[C@H](C(=O)N1CCCC[C@H]1C(=O)O[C@H](CCc1ccc(OC)c(OC)c1)c1ccccc1OCC(=O)NCCOCCOCCNC(=O)C[C@@H]1N=C(c2ccc(Cl)cc2)c2c(sc(C)c2C)-n2c(C)nnc21)c1cc(OC)c(OC)c(OC)c1 [JWJ-01-236, (R)-1-(2-((14-((S)-4-(4-Chlorophenyl)-2,3,9-trimethyl-6H-thieno[3,2-f][1,2,4]triazolo[4,3-a][1,4]diazepin-6-yl)-2,13-dioxo-6,9-dioxa-3,12-diazatetradecyl)oxy)phenyl)-3-(3,4-dimethoxyphenyl)propyl (S)-1-((S)-2-(3,4,5-trimethoxyphenyl)butanoyl)piperidine-2-carboxylate]

competitive displacement of dTAG-13 (FKBP12F36V cellular target engagement) [1]: competitive displacement of dTAG-13
Molecule: CC[C@H](C(=O)N1CCCC[C@H]1C(=O)O[C@H](CCc1ccc(OC)c(OC)c1)c1ccccc1OCC(=O)NCCCCCCCCNC(=O)C[C@@H]1N=C(c2ccc(Cl)cc2)c2c(sc(C)c2C)-n2c(C)nnc21)c1cc(OC)c(OC)c(OC)c1 [JWJ-01-255, (R)-1-(2-(2-((8-(2-((S)-4-(4-Chlorophenyl)-2,3,9-trimethyl-6H-thieno[3,2-f][1,2,4]triazolo[4,3-a][1,4]diazepin-6-yl)acetamido)octyl)amino)-2-oxoethoxy)phenyl)-3-(3,4-dimethoxyphenyl)propyl (S)-1-((S)-2-(3,4,5-trimethoxyphenyl)butanoyl)piperidine-2-carboxylate]

BRD4 pulldown in presence of free competitor [4]: dose dependent decrease in BRD4 pulldown
Molecule: (+)-JQ1 [reference compound]
